Measurements taken from US9963506B2, “Human-mouse chimeric anti-CD147 antibody with non-fucosylated glycosylation” (Fourth Military Medical University, priority 2015, dated 2018).

Experiments:
[1] = molecular target: T1, CD147^+ A549 cells (Homo sapiens, UniProt P35613); experiment: Antigen-binding activity by flow cytometry
T1 construct: endogenous in cells; host or cells: A549 (human lung cancer cell line)
T1 sequence (P35613 22-269 isoform P35613-2 limits assumed): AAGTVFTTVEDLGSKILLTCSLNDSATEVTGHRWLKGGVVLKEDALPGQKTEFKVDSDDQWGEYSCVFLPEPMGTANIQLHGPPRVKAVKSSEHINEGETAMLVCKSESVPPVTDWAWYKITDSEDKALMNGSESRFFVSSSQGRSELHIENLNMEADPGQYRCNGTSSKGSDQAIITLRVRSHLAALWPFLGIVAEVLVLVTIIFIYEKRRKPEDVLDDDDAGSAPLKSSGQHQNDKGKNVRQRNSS
Protocol: The antibody concentration is 0.001 μg/mL, 0.01 μg/mL, 0.1 μg/mL, 1 μg/ml and 10 μg/mL, respectively.
A549 cells (10^6 cells) were incubated with the Metuzumab (HcHAb18) and cHAb18 antibody, respectively, in PBS with 0.1% BSA at 4° C. for 1 h. After three washes in PBS with 0.1% BSA, cells were incubated with the FITC-conjugated Rabbit anti-Human IgG Fc Secondary Antibody (Pierce) at 4° C. in the dark for 45 min. Cells were then washed three times and suspended in PBS for analysis using a FACS Calibur flow cytometer (BD, New Jersey, U.S.). Relative antigen expression is reported as median fluorescence intensity (MFI).

[2] = system: A549 cells; experiment: Wound healing (migration) assay; type: cell-based, human
Protocol: (§1) Wound healing and transwell invasion assays were performed. For wound healing assay, 2×10^4 cells were plated in 24-well plate to form cell monolayer and allowed to reach confluence for 2 days. A wound was made in the monolayer (at time 0) by a 200 μl tip. After wash of the monolayer, Metuzumab solution was dispensed at 0.1 μg/ml, 1 μg/ml and 10 μg/ml, respectively, at 200 μl/well into each well. Saline was used as control. The distance between two sides of an open wound was measured under a CX71 microscope (Olympus). The distance between the two sides of the wound after 20-72 h of migration was divided by the distance at time 0 and represented on a graph. The experiments were performed in triplicates, the results were shown as mean±SD.

[3] = system: NCI-H520 cells; experiment: Wound healing (migration) assay; type: cell-based, human
Protocol: as §1

[4] = system: A549 cells; experiment: Subcutaneous xenograft model, tumor growth inhibition; type: in vivo, SCID mice; details: tail vein
Protocol: Mice injected with A549 cells subcutaneously in the right dorsal flank were treated by intravenous saline; 2 mg/kg Cisplatin and 100 mg/kg Gemcitabine; Metuzumab infusion at 2 mg/kg, 10 mg/kg and 30 mg/kg; combination of 10 mg/kg Metuzumab with 2 mg/kg Cisplatin and 100 mg/kg Gemcitabine; wherein the antibodies were injected twice weekly for 3 week consecutively, while the chemotherapeutic agents were injected once a week for 3 weeks consecutively. The tumors were measured twice a week.
Animals were housed in specific pathogen-free (SPF) condition. For the localized subcutaneous xenograft mouse model, 1×10^6 NCI-H520 or A549 cells, suspended in Hank's balanced salt solution were implanted in the right dorsal flank of male SCID mice (6-8 week old). When tumors reached a mean volume of 100 mm^3, mice were randomized into treatment cohorts (n=10 mice per group). Mice were grouped for different treatments, including Metuzumab treatment groups treated with 2 mg/kg, 10 mg/kg and 30 mg/kg Metuzumab; chemistry treatment group treated with 2 mg/kg Cisplatin and 100 mg/kg Gemcitabine; combination treatment group treated with 10 mg/kg Metuzumab with 2 mg/kg Cisplatin and 100 mg/kg Gemcitabine, or saline (control group) via tail vein, respectively. Antibody injections were administered twice weekly, for 3 weeks consecutively; chemotherapeutic agents were administered once a week, for 3 weeks consecutively. Tumor size was measured twice each week for the duration of the study using calipers. Tumor volumes were determined using the following formula: […]. Antitumor activity was assessed by calculating inhibition ratio of tumor volumes (IRTV) based on medians by using following formula: [1−average (Ttreatment (day x)−Ttreatment (day 0))/average (Tcontrol (day x)−Tcontrol (day 0))]×100%.

[5] = system: A549 cells; experiment: ADCC assay (LDH release), human spleen effector cells; type: cell-based; details: A549 target cells
Protocol: (§2) NCI-H520, A549 and NCI-H446 cells (1×10^4 per well) were incubated with Metuzumab or cHAb18 mAb for 30 min at 37° C. Effector cells (Spleen cells) were added at the ratio of effector cells to […] (E/T) 50:1 for 24 hours at 37° C. in CO2 incubator. After centrifugation, supernatants were harvested and lactate dehydrogenase (LDH) activity were measured. Data represent mean±SD of five independent experiments.
(§3) The ADCC activity was determined by measuring lactate dehydrogenase (LDH) activity in the medium using a Cytotoxicity Detection Kit (LDH; Roche) according to the manufacturer's protocols.
(§4) In vitro ADCC assays were performed with human lung cancer cell lines (NCI-H520, A549 and NCI-H446) as target cells, and human spleen cells were used as effector cells. The target cells (1×10^4 per well) were washed with PBS and pre-incubated with antibodies solution for 30 min at 37° C. in serum-free RPMI-1640 supplemented with 0.1% BSA. The antibody solution (Metuzumab or the chimeric antibody cHAb18 mAb) that has been adjusted to a concentration of 0.001, 0.01, 0.1, 1 or 10 μg/ml was dispensed at 100 μl/well into each well that contained the target cells, Subsequently, 100 μl of the effector cells at an effector/target ratio of 50:1 was dispensed into each well, and incubated at in a carbon dioxide incubator. The cells were incubated for an additional 24 h prior to the detection of cell death by measuring lactate dehydrogenase (LDH) activity in the medium using a Cytotoxicity Detection Kit (LDH; Roche) according to the manufacturer's protocols. The ADCC-inducing activity was calculated to the following formula: Cytotoxicity (expressed as a percentage)=(experimental cell lysis−spontaneous effector lysis−spontaneous target lysis)/(maximum target lysis−spontaneous target lysis)×100%. All assays were performed in triplicate.

[6] = system: NCI-H520 cells; experiment: as above; type: cell-based; details: NCI-H520 target cells
Protocol: as §2, §3, §4

[7] = system: NCI-H446 cells; experiment: as above; type: cell-based; details: NCI-H446 target cells
Protocol: as §2, §3, §4

## Metuzumab: human-mouse chimeric anti-CD147 IgG1, heavy chain SEQ ID NO: 4, light chain SEQ ID NO: 3, Mannose-5 glycoform lacking fucose and xylose
[1]; FIG. 4
  CD147-binding ability, Metuzumab compared with cHAb18: similar
[1]; FIG. 4, 0.001-10 μg/mL
  Binding to CD147^+ A549 cells: bound
[2]; A549, 0.1 μg/ml
  migration activity repressed compared to control group: 24.4%
[2]; A549, 0.1 μg/ml (control 20.1 μm/hr)
  migration rate: 15.2 μm/hr
[2]; A549, 1 μg/ml
  migration activity repressed compared to control group: 38.3%
[2]; A549, 1 μg/ml (control 20.1 μm/hr)
  migration rate: 12.4 μm/hr
[2]; A549, 10 μg/ml
  migration activity repressed compared to control group: 50%
[2]; A549, 10 μg/ml (control 20.1 μm/hr)
  migration rate: 10.1 μm/hr
[3]; NCI-H520, 0.1 μg/ml
  migration activity decrease compared to control group: 20.2%
[3]; NCI-H520, 0.1 μg/ml (saline 18.8 μm/hr)
  migration rate: 15.0 μm/hr
[3]; NCI-H520, 1 μg/ml
  migration activity decrease compared to control group: 34.0%
[3]; NCI-H520, 1 μg/ml (saline 18.8 μm/hr)
  migration rate: 12.4 μm/hr
[3]; NCI-H520, 10 μg/ml
  migration activity decrease compared to control group: 44.1%
[3]; NCI-H520, 10 μg/ml (saline 18.8 μm/hr)
  migration rate: 10.5 μm/hr
[4]; 2 mg/kg twice weekly for 3 weeks
  tumor volume inhibition rate: 14.78%
[4]; 10 mg/kg twice weekly for 3 weeks
  tumor volume inhibition rate: 26.52%
[4]; 30 mg/kg twice weekly for 3 weeks
  tumor volume inhibition rate: 50.64%
[5]
  ADCC-inducing activity increase over cHAb18 mAb: about 10 folds
[5]; effector/target 50:1, 24 h
  EC50% (ADCC): 0.06 µg/mL
[6]
  ADCC-inducing activity increase over cHAb18 mAb: about 10 folds
[6]; effector/target 50:1, 24 h
  EC50% (ADCC): 0.04 µg/mL
[7]
  ADCC-inducing activity increase over cHAb18 mAb: about 10 folds
[7]; effector/target 50:1, 24 h
  EC50% (ADCC): 0.11 µg/mL
